The source of these data is US20100190856A1, “Novel Polyhydroxylated Compounds as Fatty Acid Synthase (FASN) Inhibitors” (UNIVERSIDAD COMPLUTENSE DE MADRID, priority 2007, published 2010).

Data set [1] addresses T1, FASN (Homo sapiens, UniProt P49327).
T1 construct: endogenous in cells; host or cells: SK-Br3 breast cancer cells
The data set can be described thus: Fatty acid synthase activity assay in SK-Br3 cells (NADPH oxidation, particle-free supernatants). Type of data set: cell-based. Also on record: FASN activity, % of control cells / FASN activity reduced to / reduction of FASN activity: concentration or dose not given beside the values. The following applies: for inhibition of FASN activity (in words): SK-Br3 cells treated 6, 12 and 24 hours; for FASN activity, % of control cells: SK-Br3 cells, 24 h exposure. As to the method: FASN activity of compounds a, b, e, f, h, i, k, m and q was assayed in particle-free supernatants by recording spectrophotometrically at 37° C. (Lambda Bio 20, Perkin Elmer, EUA; using UV Kinlab 2.80.02 software) the decrease of A340nm due to the oxidation of NADPH, as we previously described. After 6, 12, 24 h of exposure to the tested compound, the cells were harvested by treatment with trypsin-EDTA solution, pelleted by centrifugation, washed twice and resuspended in cold PBS. The cells were sonicated during 30 min at 4° C. (PSelecta ultrasons) and centrifuged for 15 min at 4° C. to keep supernatants particle-free. A sample was taken to measure the protein content by a BioRad assay (Bio-Rad Laboratories). One-hundred and twenty micrograms of protein were pre-incubated during 15 min at 37° C. in 0.2 M of potassium phosphate buffer, pH 7.0, for temperature equilibration. The sample was then added to the reaction mixture: 200 mM potassium phosphate buffer, pH 7.0, 1 mM EDTA (Sigma), 1 mM dithiothreitol (Sigma), 30 μM acetyl-CoA (Sigma), 0.24 mM NADPH (Sigma), in 0.3 mL reaction volume were monitored at 340 nm for 3 min to measure the background NADPH oxidation. After the addition of 50 μM of malonyl-CoA (Sigma), the reaction was assayed for additional 10 min to determine FASN-dependent oxidation of NADPH. Rates were corrected for the background rate of NADPH oxidation in the presence of acetyl-CoA. FASN activity was expressed in nmol NADPH oxidized min^−1 mg protein^−1.

The target in data set [2] is T2, rat CPT-1 (Rattus norvegicus, UniProt Q63704).
T2 construct: made in house; host or cells: Pichia pastoris GS115 (isolated intact mitochondria)
T2 sequence (Q63704 1-772): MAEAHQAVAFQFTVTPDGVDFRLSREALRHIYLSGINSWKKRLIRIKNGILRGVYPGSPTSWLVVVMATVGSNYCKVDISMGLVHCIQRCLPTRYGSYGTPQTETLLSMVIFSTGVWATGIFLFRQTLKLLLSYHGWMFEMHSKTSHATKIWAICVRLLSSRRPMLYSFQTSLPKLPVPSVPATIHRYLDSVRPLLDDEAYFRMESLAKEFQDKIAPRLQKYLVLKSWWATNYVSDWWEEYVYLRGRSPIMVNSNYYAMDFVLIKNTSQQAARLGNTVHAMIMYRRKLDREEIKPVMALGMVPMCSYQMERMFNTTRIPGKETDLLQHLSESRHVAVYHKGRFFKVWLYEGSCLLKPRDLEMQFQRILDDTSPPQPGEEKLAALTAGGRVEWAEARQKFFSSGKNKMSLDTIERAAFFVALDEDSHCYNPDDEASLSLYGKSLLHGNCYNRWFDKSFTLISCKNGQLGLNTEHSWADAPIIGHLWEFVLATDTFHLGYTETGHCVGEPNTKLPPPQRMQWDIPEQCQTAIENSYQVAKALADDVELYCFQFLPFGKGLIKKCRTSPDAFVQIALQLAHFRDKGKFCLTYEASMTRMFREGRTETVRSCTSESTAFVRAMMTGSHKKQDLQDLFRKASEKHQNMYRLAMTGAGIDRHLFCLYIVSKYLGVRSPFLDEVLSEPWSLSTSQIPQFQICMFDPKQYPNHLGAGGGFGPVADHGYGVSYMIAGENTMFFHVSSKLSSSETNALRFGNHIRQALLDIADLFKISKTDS
The data set can be described thus: Carnitine palmitoyltransferase 1 (CPT-1) assay, yeast mitochondria. It counts as biochemical. Also on record: % CPT-1 activity: concentration or dose not given beside the values. Conditions: for % CPT-1 activity: % of DMSO control, mitochondria of P. pastoris expressing rat CPT-1. An excerpt:
The expression plasmid pRCPT-Iβ/pHW010 (provided by Gebre Woldegiorgis, Beaverton, Oreg. Published in Woldegiorgis G. et al. Biochem. Biophys. Res. Commun. 2004, 325, 660-4.) was linearized in the GAP gene promoter by digestion with AvrII and integrated into the GAPp locus of P. pastoris GS115 by electroporation. Histidine prototrophic transformants were selected on YND plates and grown on YND medium. Mitochondria were isolated by disrupting the yeast cells with glass beads as previously described.
CPT activity was assayed by the forward exchange method using L-[^3H] carnitine as previously described (Nicot, C. et al., Biochem. Biophys. Res. Comm. 2004, 325, 2745-7). In a total volume of 0.5 mL, the standard enzyme assay mixture contained 0.2 mM L-[^3H]carnitine (˜5000 dpm/nmol), 80 μM palmitoyl-CoA, 20 mM HEPES (pH 7.0), 1% fatty acid-free albumin, and 40-75 mM KCl, with or without malonyl-CoA as indicated. Reactions were initiated by addition of isolated intact yeast mitochondria. The reaction was linear up to 4 min, and all incubations were done at 30° C. for 3 min. Reactions were stopped by addition of 6% perchloric acid and were then centrifuged at 2000 rpm for 7 min. The resulting pellet was suspended in water, and the product [^3H]palmitoylcarnitine was extracted with butanol at low pH. After centrifugation at 2000 rpm for 2 min, an aliquot of the butanol phase was transferred to a vial for radioactive counting.

For data set [3], the system named is MCF-7 breast cancer cells. Kind of data set: MTT cytotoxicity assay, MCF-7 breast cancer cells. It counts as cell-based, human. The following applies: 48 h, read-out: IC50, growth inhibition, MCF-7. The method, then: (§1) MCF-7 and MDA-MB-231 breast cancer cells were obtained from the American Type Culture Collection (ATCC) and were routinely grown in Dulbecco's modified Eagle's medium (DMEM, Gibco) containing 10% fetal bovine serum (FBS, Bio-Whittaker), 1% L-glutamine, 1% sodium pyruvate, 50 U/mL penicillin and 50 μg/mL streptomycin. SK-Br3 breast cancer cells were obtained from Eucellbank (Universidad de Barcelona, Spain) and were passaged in McCoy's 5 A medium containing 10% FBS, 1% L-glutamine, 1% sodium pyruvate, 50 U/mL penicillin and 50 μg/mL streptomycin. Non-malignant fibroblasts N-1 were obtained from Eucellbank (Universidad de Barcelona, Spain) and were passaged in DMEM medium containing 10% FBS, 1% L-glutamine, 1% sodium pyruvate, 50 U/mL penicillin and 50 μg/mL streptomycin. The cells remained free of Mycoplasma and were propagated in adherent culture according to established protocols. Cells were maintained at 37° C. in a humidified atmosphere of 95% air and 5% CO2.
(§2) Drug sensitivity was determined using a standard colorimetric MTT (3-4,5-dimethylthiazol-2-yl-2,5-diphenyltetrazolium bromide) assay. Briefly, cells were plated out at a density of 7×10^3 cells/100 μL/well in 96-well microtitre plates and allowed an overnight period for attachment. Then the medium was removed and fresh medium along with various concentrations of the tested compound were added to the cultures for a period of 48 h. Following the treatment, the cells were fed with drug-free medium (100 μL/well) and 10 μL of MTT solution (5 mg/mL; Sigma, St. Louis, Mo.), and the incubation was prolonged for 3 h at 37° C. After carefully removing the supernatants, the MTT-formazan crystals formed by metabolically viable cells were dissolved in dimethyl sulphoxide (100 μL/well) and the absorbance was measured at 570 nm in a multi-well plate reader (Model Anthos Labtec 2010 1.7 reader).
Background: Tetrazolium assays rely on reduction of a dye to a coloured formazan, in cell work by metabolically active cells.

Data set [4] concerns MDA-MB-231 breast cancer cells. Kind of data set: MTT cytotoxicity assay, MDA-MB-231 breast cancer cells. Type of data set: cell-based, human. The following applies: MDA-MB-231 cells, 48 h, read-out: IC50, growth inhibition, MDA-MB-231. The method, then:
as §1, §2

For data set [5], the system named is SK-Br3 breast cancer cells. The data set can be described thus: MTT cytotoxicity assay, SK-Br3 breast cancer cells. Type of data set: cell-based, human. The following applies: MTT, 48 h, read-out: IC50, growth inhibition, SK-Br3. The method, then:
as §1, §2

Data set [6] concerns cancer cells overexpressing FASN. The following applies: cited from earlier work.
The conditions of data set [7]: rats, oral dose of 56 mg of EGCG; cited from earlier work.
Data set [8] concerns Non-malignant fibroblasts N-1. The data set can be described thus: MTT cytotoxicity assay, non-malignant fibroblasts N-1. Conditions: for IC50: non-malignant fibroblasts, MTT, 48 h, read-out: IC50, growth inhibition, Fibroblasts; for effects in cell death / morphology changes in non-malignant cells: up to doses three-fold their cytotoxic IC50 value in tumoral cells. It counts as cell-based. The method, then: as §1, §2

For data set [9] the following is noted: within 24 h, mice models; cited from earlier work.
The nature of data set [10]: Weight loss in vivo (data not shown).
Setting [11] is: Homo sapiens, MCF7, MCF-7 cells.

Values joined by “and” are separate entries in the source; they are usually repeats but may differ in a detail not shown here. Identical values can stand only once. “Also recorded” adds a separate entry of the source. Like-named read-outs stand apart in the source and are kept apart here.

T1 sequence (P49327 whole entry): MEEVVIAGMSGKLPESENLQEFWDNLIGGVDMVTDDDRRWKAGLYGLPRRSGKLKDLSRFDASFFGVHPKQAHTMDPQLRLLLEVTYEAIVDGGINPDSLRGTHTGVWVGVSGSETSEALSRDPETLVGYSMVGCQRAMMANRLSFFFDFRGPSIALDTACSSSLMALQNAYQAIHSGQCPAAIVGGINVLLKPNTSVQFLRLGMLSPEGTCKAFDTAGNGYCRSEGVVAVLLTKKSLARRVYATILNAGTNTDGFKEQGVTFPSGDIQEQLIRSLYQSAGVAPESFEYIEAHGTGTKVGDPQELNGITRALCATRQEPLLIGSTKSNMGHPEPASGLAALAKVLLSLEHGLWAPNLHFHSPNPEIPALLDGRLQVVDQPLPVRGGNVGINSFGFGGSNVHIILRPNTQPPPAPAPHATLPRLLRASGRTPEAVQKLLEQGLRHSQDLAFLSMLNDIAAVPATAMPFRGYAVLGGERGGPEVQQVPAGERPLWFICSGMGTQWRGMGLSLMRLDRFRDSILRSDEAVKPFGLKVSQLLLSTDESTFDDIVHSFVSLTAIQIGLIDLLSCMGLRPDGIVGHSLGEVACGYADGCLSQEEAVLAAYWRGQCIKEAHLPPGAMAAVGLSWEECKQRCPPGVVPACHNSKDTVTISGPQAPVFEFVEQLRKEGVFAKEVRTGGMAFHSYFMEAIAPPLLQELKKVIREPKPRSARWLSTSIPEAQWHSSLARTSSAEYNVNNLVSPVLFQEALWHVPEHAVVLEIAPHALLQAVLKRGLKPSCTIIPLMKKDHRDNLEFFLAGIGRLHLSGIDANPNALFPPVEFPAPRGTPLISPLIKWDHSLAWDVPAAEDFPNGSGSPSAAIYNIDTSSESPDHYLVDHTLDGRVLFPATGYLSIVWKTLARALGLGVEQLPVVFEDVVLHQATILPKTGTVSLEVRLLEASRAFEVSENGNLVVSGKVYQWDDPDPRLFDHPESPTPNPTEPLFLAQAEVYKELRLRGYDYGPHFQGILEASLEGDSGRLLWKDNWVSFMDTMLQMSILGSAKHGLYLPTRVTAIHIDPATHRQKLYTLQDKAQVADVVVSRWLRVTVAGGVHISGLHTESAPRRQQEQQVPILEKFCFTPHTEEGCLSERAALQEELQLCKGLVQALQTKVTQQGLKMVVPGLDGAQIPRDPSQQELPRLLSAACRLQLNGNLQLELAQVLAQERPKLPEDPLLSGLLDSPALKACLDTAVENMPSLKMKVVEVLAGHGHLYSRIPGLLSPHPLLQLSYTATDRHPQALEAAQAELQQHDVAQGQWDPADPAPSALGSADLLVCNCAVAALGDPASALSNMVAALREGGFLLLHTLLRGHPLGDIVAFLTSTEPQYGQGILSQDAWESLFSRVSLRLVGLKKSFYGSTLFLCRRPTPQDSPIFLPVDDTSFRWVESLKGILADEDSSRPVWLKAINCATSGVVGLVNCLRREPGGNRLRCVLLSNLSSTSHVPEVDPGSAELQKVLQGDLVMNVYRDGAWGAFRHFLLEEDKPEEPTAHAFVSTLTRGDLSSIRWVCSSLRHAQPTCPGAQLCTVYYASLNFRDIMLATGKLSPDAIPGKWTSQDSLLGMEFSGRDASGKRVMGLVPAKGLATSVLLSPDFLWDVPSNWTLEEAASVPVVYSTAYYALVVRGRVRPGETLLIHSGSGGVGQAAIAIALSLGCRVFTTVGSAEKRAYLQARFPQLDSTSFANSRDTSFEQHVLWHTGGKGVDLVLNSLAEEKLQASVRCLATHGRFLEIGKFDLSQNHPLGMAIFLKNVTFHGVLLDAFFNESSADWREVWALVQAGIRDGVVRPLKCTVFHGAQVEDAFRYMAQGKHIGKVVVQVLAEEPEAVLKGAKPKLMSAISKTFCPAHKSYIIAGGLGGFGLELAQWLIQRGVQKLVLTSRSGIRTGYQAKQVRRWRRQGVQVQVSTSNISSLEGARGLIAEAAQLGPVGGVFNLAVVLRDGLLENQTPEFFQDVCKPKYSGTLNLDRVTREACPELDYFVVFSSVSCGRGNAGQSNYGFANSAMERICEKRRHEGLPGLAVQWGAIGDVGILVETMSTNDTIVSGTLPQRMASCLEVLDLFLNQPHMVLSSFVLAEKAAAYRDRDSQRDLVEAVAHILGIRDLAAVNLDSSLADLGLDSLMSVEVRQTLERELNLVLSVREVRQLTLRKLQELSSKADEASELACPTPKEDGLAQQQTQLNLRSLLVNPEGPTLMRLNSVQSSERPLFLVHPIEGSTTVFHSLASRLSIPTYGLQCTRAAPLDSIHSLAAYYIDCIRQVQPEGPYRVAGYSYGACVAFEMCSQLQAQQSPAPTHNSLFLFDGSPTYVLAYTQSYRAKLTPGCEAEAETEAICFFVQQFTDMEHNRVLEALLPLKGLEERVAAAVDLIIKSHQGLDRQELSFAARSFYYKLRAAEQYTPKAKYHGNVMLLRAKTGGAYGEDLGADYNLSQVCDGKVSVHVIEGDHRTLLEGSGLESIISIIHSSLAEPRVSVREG

`O=C(O[C@@H]1Cc2c(O)cc(O)cc2O[C@@H]1c1cc(O)c(O)c(O)c1)c1cc(O)c(O)c(O)c1` [EGCG, (−)-epigallocatechin-3-gallate, reference compound]: the “inhibition of FASN activity (in words)” value in data set [1] was “inhibit FASN activity; also recorded: decreased in a time-dependent manner”. Moreover, the “% CPT-1 activity” value in data set [2] was 81 ± 4%. For the same compound, the IC50 in [3] (MCF-7 cells) is 205 ± 7.1 µM; in data set [4], 197 ± 15.3 µM; in [5] it was 150 µM and 149 µM; in data set [8], 125 µM. Further, in data set [6], the “inhibitory ability lower than that of C75 and cerulenin” value is 4 fold. The EGCG absorbed in data set [7] is on record as 0.012%. The “effects in cell death / morphology changes in non-malignant cells” value in data set [8] is “massive cell death”.
With `O=C(Oc1ccc(OC(=O)c2cc(O)c(O)c(O)c2)c(-c2ccccc2)c1)c1cc(O)c(O)c(O)c1` [o, 2,5-bis[(3,4,5-trihydroxybenzoyl)oxy]-1,1′-biphenyl], the melting point was in the range of 114 to 116 °C. Besides, in data set [2], the “stimulation of CPT-1 activity (in words)” value is recorded as “did not” and the “% CPT-1 activity” value was found to be 86.80 ± 14%. The IC50 in [3] (setting [11]) stood at 10 ± 2.8 µM. Besides, the IC50 in data set [4] (Homo sapiens) stood at 40 ± 2.8 µM. For the same compound, the IC50 in data set [5] (Homo sapiens, SK-BR-3, 48 h) is 17.5 ± 2.6 µM.
As to `C=C1C(=O)O[C@H](CCCCCCCC)[C@H]1C(=O)O` [Compound C75, (2R,3S)-4-methylene-2-octyl-5-oxotetrahydrofuran-3-carboxylic acid, reference compound], in data set [9], the “loss of body mass” value was “up to 12%”. Besides, the “stimulation of CPT-1 activity (in words)” value in data set [2] is recorded as “stimulates CPT-1 activity”.
Compound `O=C(Oc1cc2ccccc2cc1OC(=O)c1cc(O)c(O)c(O)c1)c1cc(O)c(O)c(O)c1` [e, 2,3-bis[(3,4,5-trihydroxybenzoyl)oxy]naphthalene] yielded a melting point of 182 to 183 °C. For the same compound, the “weight loss in vivo” value in [10] is “without inducing weight loss in vivo”. For the same compound, in data set [1], the “inhibition of FASN activity (in words)” value is “inhibit FASN activity; also recorded: decreased in a time-dependent manner” and the “FASN activity, % of control cells” value is listed as 69%. Besides, in data set [2], the “stimulation of CPT-1 activity (in words)” value is given as “did not stimulate CPT-1 activity” and the “% CPT-1 activity” value is recorded as 87.91 ± 7%. In data set [3] (setting [11]), the IC50 was 89 ± 28.7 µM. The IC50 in data set [4] (Homo sapiens) is 136 ± 26.9 µM. In data set [5] (Homo sapiens, SK-BR-3, 48 h), the IC50 came to 76.5 ± 9.2 µM.
Turning to `O=C(Oc1ccc(-c2ccc(OC(=O)c3cc(O)c(O)c(O)c3)cc2)cc1)c1cc(O)c(O)c(O)c1` [q, 4,4′-bis[(3,4,5-trihydroxybenzoyl)oxy]-1,1′-biphenyl], in data set [10], the “weight loss in vivo” value is “without inducing weight loss in vivo”. Further, in data set [1], the “inhibition of FASN activity (in words)” value was “inhibit FASN activity; also recorded: decreased in a time-dependent manner”. For the same compound, the “FASN activity, % of control cells” value in [1] is recorded as 20%. Also, the “reduction of FASN activity” value in data set [1] (after 24 h of cell exposure) is 50%. For the same compound, in [2], the “stimulation of CPT-1 activity (in words)” value is reported as “did not stimulate CPT-1 activity”. Further, in [2], the “% CPT-1 activity” value is 84.38 ± 4%. Besides, the IC50 was 2.5 ± 0.1 µM in data set [3] (setting [11]); 5.2 ± 3.5 µM in data set [4] (Homo sapiens); 4 ± 1 µM in data set [5] (Homo sapiens, SK-BR-3, 48 h); 4.4 ± 1.4 µM in [5]; 13 ± 4 µM in [8] (Fibroblast). For the same compound, the “effect on non-malignant cells / normal fibroblasts” value in data set [8] (at concentrations similar to IC50) is “not affected”. The “effects in cell death / morphology changes in non-malignant cells” value in data set [8] is recorded as “No significant effects”.

In general, IC50 refers to the concentration needed to halve the response being measured. Usually melting point stands for the temperature, or range, at which the solid turns liquid.
